Reference: patent US20260284064A1, “PI3K INHIBITORS FOR THE TREATMENT OF CANCER” (priority 2023, published 2026)
“And” between values parts separate entries of the source, which are not always exact repeats. Identical values can stand only once. Like-named read-outs stand apart in the source and are kept apart here.

How the values were obtained:
PI3Kγ (p110γ) = conditions: cited from earlier work
PI3Kα (p110α) = conditions: cited from earlier work
PI3Kβ (p110β) = conditions: cited from earlier work
PI3Kδ (p110δ) = conditions: cited from earlier work
[1] = cited from earlier work
[2] = test system: KP4 cells comprising a PIK3CA LOF mutation; experiment: cell viability assay in isogenic KP4 lines (PIK3CA LOF, wild type, PIK3CB knocked out); type: cell-based
Procedure: To determine the effects of PI3K inhibitors in tumor cells harboring PIKCA mutations, cell lines with engineered PIK3CA were created and administered multiple PI3K inhibitors. In particular, an engineered line comprising a PIK3CA loss of function (LOF) mutant was compared to its parental line (PIK3CA wild type), and a cell line with PIK3CB knocked out. Various PI3K inhibitors were administered to each cell line.
To create cells with a loss of function PIK3CA mutation (PIK3CA-LOF mutant), the PIK3CA gene was knocked out in KP4 cells using CRISPR genome editing (kits sold by Synthego). The parental line of KP4 cells comprising PIK3CA wild type was used as a comparator, and KP4 cells with PIK3CB knocked out were used as a control. A cell viability assay was performed by treating the three isogenic lines with various concentrations of three different PI3K inhibitors: GSK-2636771, a selective PI3K-beta (PIK3CB) inhibitor, AZD-8186, a PI3K-beta/delta (PIK3CB, PIK3CD) inhibitor, and seletalisib, a selective PI3K-delta (PIK3CD) inhibitor.

[3] = test system: PBMCs or other cell types; conditions: cited from earlier work
[4] = test system: PDX models with predicted LOF mutations in PIK3CA; experiment: Example 7 patient derived xenograft (PDX) study; type: in vivo, NSG mice; conditions: 10 mg/kg or 3 mg/kg once daily by oral gavage
BT474c cells = conditions: read-out: IC50, cell growth; cited from earlier work
PC3 = conditions: cited from earlier work
HID28 = HID28 explant model; cited from earlier work
[5] = test system: PIK3CA-mutant line BT474c; conditions: read-out: potency in BT474c; cited from earlier work
[6] = test system: pAKT (Ser473) in JEKO cells; conditions: read-out: IC50, IgM-stimulated phosphorylation of pAKT (Ser473); cited from earlier work
[7] = test system: pAKT (Ser473) in PTEN-null MDA-MB-468 cells; conditions: read-out: IC50, PI3Kβ-dependent activation of pAKT (Ser473); cited from earlier work
[8] = test system: 74 protein and lipid kinases; conditions: cited from earlier work
HCC70 = conditions: cited from earlier work
JEKO cells = conditions: IgM stimulated JEKO cells; read-out: IC50, cell growth; cited from earlier work
442 other kinases = test system: 442 other kinases; set-up: dose or concentration left out as unconfirmed; conditions: cited from earlier work
MDA-MB-468 cells = conditions: read-out: GI50, proliferation; cited from earlier work
[9] = cited from earlier work; remark: listed apart in the source
MDA-MB-468 = conditions: end of study, cited from earlier work
[10] = compared to KP4 PIK3CA wild type, FIG. 3
[11] = read-out: IC50 for PI3Kβ (p110β)
[12] = compared to KP4 PIK3CA wild type or PIK3CB LOF, FIG. 2

SMILES: Cc1nc(NC(=O)N2CCC[C@H]2C(N)=O)sc1-c1ccnc(C(C)(C)C(F)(F)F)c1 [Alpelisib]
- effect on PI3Kγ (PI3Kγ (p110γ); cell-free assay): minimal effect
- effect on PI3Kβ (PI3Kβ (p110β); cell-free assay): minimal effect
- effect on PI3Kδ (PI3Kδ (p110δ); cell-free assay): minimal effect

SMILES: Cc1cc(C(C)Nc2ccccc2)c2nc(N3CCOCC3)cc(=O)n2c1 (centres unmarked) [TGX-221]
- cell permeability [1]: high cell permeability
- cancer cell inhibition in KP4 PIK3CA LOF cells [2, 10]: favorable increase in cancer cell inhibition

SMILES: [O-][n+]1cccc(-c2nc3c(Cl)cccc3cc2[C@@H](Nc2ncnc3cccnc23)C(F)(F)F)c1 [Seletalisib]
- cancer cell inhibition in KP4 PIK3CA LOF cells [2, 12]: no improvement in cancer cell inhibition
- cytotoxicity [3]: No indications of cytotoxicity
- IC50 (PI3Kδ (p110δ)): 12 nM

SMILES: Cc1cc([C@@H](C)Nc2ccccc2C(=O)O)c2nc(N3CCOCC3)cc(=O)n2c1 [AZD-6482]
- cancer cell inhibition in KP4 PIK3CA LOF cells [2, 10]: favorable increases in cancer cell inhibition

SMILES: C[C@H]1Cc2ccccc2N1C(=O)Cc1nc(=O)cc(N2CCOCC2)[nH]1 [SAR-260301]
- IC50 (PI3Kγ (p110γ)): 10000 nM
- cancer cell inhibition in KP4 PIK3CA LOF cells [2, 10]: favorable increases in cancer cell inhibition
- IC50 (PI3Kα (p110α)): 1540 nM
- IC50 (PI3Kβ (p110β); [11]): 23 nM
- IC50 (PI3Kδ (p110δ)): 469 nM

SMILES: CC[C@H](Nc1ncnc2[nH]cnc12)c1nc2cccc(F)c2c(=O)n1-c1ccccc1 [Idelalisib]
- IC50 (PI3Kδ (p110δ); cell-free assays): 2.5 nM

SMILES: C[C@H](Nc1ncnc2[nH]cnc12)c1nc2ccc(F)cc2c(=O)n1-c1ccccc1 [Acalisib]
- cancer cell inhibition in KP4 PIK3CA LOF cells [2, 10]: reduced levels of cancer cell inhibition
- IC50 (PI3Kβ (p110β); unit inferred, read-out: IC50 against PI3Kβ): 3380 nM
- IC50 (PI3Kδ (p110δ)): 12.7 nM and 14 nM
- selectivity over the other class 1 PI3K enzymes (PI3Kδ (p110δ)): greater than 100 fold

SMILES: Cc1c(Cn2c(C)nc3c(C(=O)O)cc(N4CCOCC4)cc32)cccc1C(F)(F)F [GSK-2636771]
- survival outcomes [4]: significantly improved survival outcomes
- tumor growth [4]: significantly reduced tumor growth
- selectivity for p110β over p110γ (PI3Kγ (p110γ)): 900 fold
- cancer cell inhibition in KP4 PIK3CA LOF cells [2, 12]: favorable increases in cancer cell inhibition
- selectivity for p110β over p110α (PI3Kα (p110α)): 900 fold
- IC50 (PI3Kβ (p110β); [11]): 5.2 nM
- selectivity for p110β over p110δ (PI3Kδ (p110δ)): 10 fold

SMILES: C[C@@H](Nc1cc(F)cc(F)c1)c1cc(C(=O)N(C)C)cc2c(=O)cc(N3CCOCC3)oc12 [AZD-8186, (R)-8-(1-(3,5-Difluorophenylamino)ethyl)-N,N-dimethyl-2-morpholino-4-oxo-4H-chromene-6-carboxamide]
- IC50 (BT474c cells): 1980 nM
- maximal growth inhibition (PC3; PC3, 25 mg/kg twice a day): 59%
- reduction in tumor growth (PC3; PC3, 30 mg/kg AZD-8186 co-dosed with Cyt P450 inhibitor ABT): 86%
- maximal growth inhibition (PC3; PC3, 50 mg/kg twice a day): 64%
- growth inhibition (HID28): 79%
- IC50 [5]: 752 nM
- IC50 [6]: 17 nM
- IC50 [7]: 3 nM
- selectivity for PI3Kβ and δ versus 74 protein and lipid kinases [8]: > 100 fold
- IC50 (PI3Kγ (p110γ)): 675 nM
- tumor growth inhibition (HCC70; HCC70, 25 mg/kg twice a day): 62%
- tumor growth inhibition (HCC70; HCC70, 50 mg/kg twice a day): 85%
- cancer cell inhibition in KP4 PIK3CA LOF cells [2, 12]: favorable increases in cancer cell inhibition
- IC50 (JEKO cells): 228 nM
- binding to 442 other kinases in KinomeScan screen (442 other kinases): no significant binding
- GI50 (MDA-MB-468 cells): 65 nM
- IC50 (PI3Kα (p110α)): 35 nM
- IC50 (PI3Kβ (p110β); [11]): 4 nM
- exposure ([9]; animals bearing PC3 tumors, co-dosed with Cyt P450 inhibitor ABT): significantly increased exposure
- half-life ([9]; mouse, in vivo): short half-life
- IC50 (PI3Kδ (p110δ)): 12 nM
- tumor growth inhibition (MDA-MB-468; MDA-MB-468, 25 mg/kg twice a day): 47%
- tumor growth inhibition (MDA-MB-468; MDA-MB-468, 50 mg/kg twice a day): 76%
